We go through 27 compounds from patent US20140288040A1, “SUBSTITUTED BENZYLAMINE COMPOUNDS, THEIR USE IN MEDICINE, AND IN PARTICULAR THE TREATMENT OF HEPATITIS C VIRUS (HCV) INFECTION” (ASTEX THERAPEUTICS LIMITED, priority 2011, published 2014).

In assay [1] the test system is HCV replicon GT1b RNA in Huh-7 cells. In words: Quantitative RT-PCR of HCV replicon RNA levels. Format: cell-based, hepatitis C virus (HCV).
Protocol: In order to directly determine HCV replicon RNA levels in HCV replicon bearing Huh-7 cells the cells were seeded at 100,000 cellswell, in 6 well tissue culture plates, and allowed to attach overnight before compound addition at a final DMSO concentration of 0.1%. At 72 hours post compound addition RNA was extracted from DMSO-only treated and compound-treated cells using a Qiagen RNeasy kit (Qiagen) according to the manufacturer's instructions. All samples were then normalized for total RNA concentration. […] Briefly, sample RNA (2 ng) was combined with the NS5A primers listed above at a final concentration of 1 μM and an equal volume of 2× Quantitect SYBR Green RT-PCR Master Mix. […] Amplification of HPRT RNA for each sample was determined in separate reactions. The amount of input RNA from the untreated control sample was varied in order to generate a standard curve by which the relative levels of replicon RNA from each treated sample could be expressed as fold changes relative to the untreated control sample. […] Values were calculated from the average of three independent experiments, where log10 [sequence] levels at day 3, 7, 10, and 14 post compound treatment were subtracted from log10 [sequence] […]
Assay [2] concerns the target T1, HCV NS3 protease (full length NS34a) (Hepatitis C virus genotype 1b, UniProt P26663).
T1 construct: The protease activity of the full length NS34a was measured using a FRET-based assay; made in house
In words: HCV NS3 protease assay (FRET, full length NS34a). Format: biochemical. The method, boiled down: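 Full-length NS34a incubated with compound and an NS4AB cleavage-site FRET peptide (QXL520 quencher, 5-FAMsp fluorophore) in 50 mM Tris pH8, 20 mM DTT, 1% CHAPS, 10% glycerol, 5% DMSO. Fluorescence followed for 30 minutes at room temperature; IC50 from initial rates of replicate progress curves.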

Assay [3] deals with HCV subgenomic replicon in Huh-7 cells. Description: Replicon assay, EC50 luciferase readout. It is filed as cell-based, hepatitis C virus (HCV). Particulars: for EC50: Huh-7 replicon cells, 72 h, single value, or second value of a pair x:y, read-out: Activity EC50 (μM) (EC50 luciferase readout). The gist of the method: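 Huh-7 cells carrying a subgenomic HCV replicon (NS3-NS5b, firefly luciferase-neo fusion) were treated with compound for 72 h at 37°C, 5% CO2. EC50 derived from Bright-Glo luciferase signal as a proxy for HCV RNA; cell viability measured in parallel by Alamar blue.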

Setting [4] is: protease activity of full length NS34a, FRET peptide substrate, read-out: Activity IC50.
[5] abbreviates: IC50 values of 10-150 μM against the protease activity of the full length NS34a, or at least 40% inhibition of protease activity at a concentration of 100 μM.

pEC50, pIC50: −log10 of the molar value. Where a name gives a salt, the structure may show the parent alone. Read-outs that look alike come from different tables or passages of the source.

T1 sequence (P26663 1658-1711): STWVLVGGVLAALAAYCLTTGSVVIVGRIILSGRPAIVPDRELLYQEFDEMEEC
T1 sequence (P26663 1027-1657): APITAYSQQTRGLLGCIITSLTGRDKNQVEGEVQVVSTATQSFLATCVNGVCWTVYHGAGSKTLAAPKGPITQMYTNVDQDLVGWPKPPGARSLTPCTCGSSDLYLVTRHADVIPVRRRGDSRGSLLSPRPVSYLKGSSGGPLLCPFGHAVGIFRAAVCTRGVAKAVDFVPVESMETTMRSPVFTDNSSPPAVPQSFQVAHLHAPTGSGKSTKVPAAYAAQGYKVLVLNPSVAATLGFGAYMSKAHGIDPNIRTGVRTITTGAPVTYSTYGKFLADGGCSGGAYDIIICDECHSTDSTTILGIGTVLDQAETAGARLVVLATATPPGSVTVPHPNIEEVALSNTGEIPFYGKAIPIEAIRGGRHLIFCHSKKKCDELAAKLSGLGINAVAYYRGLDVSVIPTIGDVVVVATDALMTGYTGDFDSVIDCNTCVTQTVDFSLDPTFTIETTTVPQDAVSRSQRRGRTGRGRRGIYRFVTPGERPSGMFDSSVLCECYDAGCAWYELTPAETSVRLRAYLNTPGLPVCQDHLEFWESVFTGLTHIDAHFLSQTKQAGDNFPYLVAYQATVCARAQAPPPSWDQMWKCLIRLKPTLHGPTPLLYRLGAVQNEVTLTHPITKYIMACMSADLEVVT

In the case of `CC[C@@H](N[C@@H](C)CC(N)=O)c1ccc(Cl)c(Oc2ccccc2)c1F` (single isomer, unassigned) [Example 88], the “decline in HCV replicon RNA over time” value in assay [1] (10x EC50, day 3, 7, 10 and 14, compound alone) was “comparable over time with Danoprevir and VX-222”. Besides, the “decline in HCV replicon RNA, combination” value in assay [1] (10x EC50, in combination with either Danoprevir or VX-222) is listed as “largest declines”. Besides, in assay [2] (setting [4]), the pIC50 was 7.00. Besides, the EC50 in assay [3] (Hepatitis C virus, Huh-7, 72 h) came out at 0.4 µM. Besides, the negative logarithm of the EC50 (pEC50) in assay [3] (Hepatitis C virus, Huh-7, replicon assay, set in line with previous observations, read-out: pre-determined EC50 set for the combination experiments) was 6.52.
Consider `CC[C@H](Nc1ncc[nH]1)c1ccc(Cl)c(Oc2ccccc2)c1F` [Example 275, [(S)-1-(4-Chloro-2-fluoro-3-phenoxy-phenyl)-propyl]-(1H-imidazol-2-yl)-amine.hydrochloride], for which the pIC50 in assay [2] (setting [4]) was 6.39. Also, the EC50 in assay [3] (Hepatitis C virus, Huh-7, 72 h) is above 10 µM.
Taken in the same sequence, the figures for `CCC(NCCCO)c1ccc(F)c(Oc2ccccc2)c1F` (stereo not shown) [Example 56, 3-[1-(2,4-Difluoro-3-phenoxy-phenyl)-propylamino]-propan-1-ol.hydrochloride] were 5.96 and 11 µM.
Regarding `CC(CO)NC(c1ccc(F)c(Oc2ccccc2)c1F)C1CCNCC1` (single isomer, unassigned) [Example 76, 2-{[(2,4-Difluoro-3-phenoxy-phenyl)-piperidin-4-yl-methyl]-amino}-propan-1-ol.dihydrochloride], in assay [2] (setting [4]), the negative-log IC50 (pIC50) was 5.54. In assay [3], the concentration giving a half-maximal response (EC50) was 6 µM.
Regarding `CC[C@@H](N[C@@H](C)CC(=O)N[C@@H]1CCNC1)c1ccc(Cl)c(Oc2ccccc2)c1F` [Example 263], the pIC50 in assay [2] (setting [4]) was 6.41. In assay [3] (Hepatitis C virus, Huh-7, 72 h), the EC50 is 1.6 µM.
Taken in the same sequence, the figures for `CCC(NC(C)CO)c1ccc(F)c(Oc2ccccc2)c1F` (stereo not shown) [Example 32] were 6.06 and 8 µM.
In the same order, the values of `CC[C@@H](N[C@@H](C)CC(N)=O)c1ccc(Cl)c(Oc2ccc3c(c2)C(C)(C)CN3)c1F` [Example 322] are 6.57 and 1.2 µM.
In the same order, the values of `CC[C@@H](N[C@@H](C)CC(N)=O)c1ccc(Cl)c(Oc2cccc(CNS(C)(=O)=O)c2)c1F` [Example 216] are 6.01 and above 10 µM.
`CC[C@@H](N[C@@H](C)CC(=O)NC1COC1)c1ccc(Cl)c(Oc2ccccc2)c1F` [Example 222]: in assay [2] (setting [4]), the pIC50 is 6.43. Also, the EC50 in assay [3] (Hepatitis C virus, Huh-7, 72 h) is above 10 µM.
`CC[C@H](N[C@@H](C)CC(N)=O)c1ccc(F)c(Oc2ccccc2)c1F` [Example 70]: the pIC50 in assay [2] (setting [4]) is 6.14. Further, the EC50 in assay [3] (Hepatitis C virus, Huh-7, 72 h) was determined as 27 µM.
Compound `CCC(NCc1[nH]cnc1C)c1ccc(F)c(Oc2ccccc2)c1F` (stereo not shown) [Example 24] showed a pIC50 in assay [2] (setting [5]) of 3.82 to 5.00. In assay [3] (Hepatitis C virus, Huh-7, 72 h), the EC50 is 18 µM.
`CC[C@@H](N[C@@H](C)CC(=O)NOC)c1ccc(Cl)c(Oc2ccccc2)c1F` [Example 155]: the pIC50 in assay [2] (setting [4]) was 5.77. Moreover, the half-maximal effective concentration (EC50) in assay [3] (Hepatitis C virus, Huh-7, 72 h) was above 10 µM.
In the case of `CC[C@@H](N[C@@H](C)CC(N)=O)c1ccc(Cl)c(Oc2cccc(C#N)c2)c1F` [Example 226], the pIC50 in assay [2] (setting [4]) is 6.70. In addition, the half-maximal effective concentration (EC50) in assay [3] (Hepatitis C virus, Huh-7, 72 h) is 2.9 µM.
Regarding `CC[C@@H](N[C@H](C)CO)c1ccc(F)c(Oc2ccccc2)c1F` [Example 58], in assay [2] (setting [4]), the pIC50 is 6.00. Also, the EC50 in assay [3] (Hepatitis C virus, Huh-7, 72 h) turned out to be 27 µM.
For the compound `N[C@@H](c1ccc(F)c(Oc2ccccc2)c1F)[C@H]1CCOC1` (relative stereo) [Example 62, C-(2,4-Difluoro-3-phenoxy-phenyl)—C-(tetrahydro-furan-3-yl)-methylamine.hydrochloride], the pIC50 in assay [2] (setting [4]) was 5.14. Besides, the EC50 in assay [3] (Hepatitis C virus, Huh-7, 72 h) is above 30 µM.
Taken in the same sequence, the figures for `C[C@H](CO)N[C@@H](CC1CCNCC1)c1ccc(F)c(Oc2ccccc2)c1F` [Example 95B, (R)-2-[(S)-1-(2,4-Difluoro-3-phenoxy-phenyl)-2-piperidin-4-yl-ethylamino]-propan-1-ol.dihydrochloride] were 6.39 and 0.16 µM.
In the case of `N[C@@H](c1ccc(F)c(Oc2ccccc2)c1F)[C@H]1CCC(=O)NC1` [Example 74A], in assay [2] (setting [5]), the pIC50 was 3.82 to 5.00. Moreover, the EC50 in assay [3] (Hepatitis C virus, Huh-7, 72 h) was above 30 µM.
`CC[C@@H](N[C@@H](C)C(=O)NCCCN)c1ccc(Cl)c(Oc2ccccc2)c1F` [Example 331]: the inhibition at 0.03 µM in assay [2] (read-out: Activity % inhibition @ 0.03 μM, 0.03 μM compound) worked out at 49.5%. Moreover, the concentration giving a half-maximal response (EC50) in assay [3] (Hepatitis C virus, Huh-7, 72 h) was above 10 µM.
Regarding `CC[C@@H](N[C@@H](C)CC(N)=O)c1ccc(Cl)c(Oc2ccc(-c3cnco3)cc2)c1F` [Example 219], in assay [2] (setting [4]), the pIC50 is 6.66. In addition, the EC50 in assay [3] (Hepatitis C virus, Huh-7, 72 h) is 0.32 µM.
Consider `CC[C@@H](N[C@@H](C)CC(N)=O)c1ccc(Cl)c(Oc2ccc(NC(C)=O)c(C)c2)c1F` [Example 244, (S)-3-{(R)-1-[3-(4-Acetylamino-3-methyl-phenoxy)-4-chloro-2-fluoro-phenyl]-propylamino}-butyramide.hydrochloride], for which the pIC50 in assay [2] (setting [4]) was 6.33. Besides, in assay [3] (Hepatitis C virus, Huh-7, 72 h), the EC50 came out at 0.099 µM.
As to `CC[C@H](N[C@H](C)CO)c1ccc(F)c(Oc2ccccc2)c1F` [Example 65], the pIC50 in assay [2] (setting [4]) is 5.68. In addition, the EC50 in assay [3] (Hepatitis C virus, Huh-7, 72 h) was 12 µM.
Taken in the same sequence, the figures for `CCC(N)c1ccc(F)c(Oc2ccccc2)c1F` (stereo not shown) [Example 3, 1-(2,4-Difluoro-3-phenoxy-phenyl)-propylamine. hydrochloride] were 5.68 and 22 µM.
The compound `CC[C@@H](N[C@@H](C)CC(=O)N1CCCNCC1)c1ccc(Cl)c(Oc2ccccc2)c1F` [Example 236] gave a pIC50 in assay [2] (setting [5]) of 3.82 to 5.00. Further, the inhibition at 3 µM in assay [2] (read-out: Activity % inhibition @ 3 μM, 3 μM compound) stood at 50%. Besides, the EC50 in assay [3] (Hepatitis C virus, Huh-7, 72 h) stood at 1.7 µM.
Take `CC[C@@H](N[C@@H](C)CC(N)=O)c1ccc(Cl)c(Oc2ccc([N+](=O)[O-])c(OC)c2)c1F` [Example 253]: the pIC50 in assay [2] (setting [4]) is 6.39. Besides, in assay [3] (Hepatitis C virus, Huh-7, 72 h), the EC50 is 0.13 µM.
On to `CC[C@@H](N[C@@H](C)CO)c1ccc(F)c(Oc2ccccc2)c1F` [Example 57], for which the pIC50 in assay [2] (setting [5]) is 3.82 to 5.00. The EC50 in assay [3] (Hepatitis C virus, Huh-7, 72 h) stood at 29 µM.
As for `CC[C@@H](N[C@@H](C)CC(N)=O)c1ccc(Cl)c(Oc2ccc(N)c(C)c2)c1F` [Example 127], the negative logarithm of the IC50 (pIC50) in assay [2] (setting [4]) is 6.96. In addition, the EC50 in assay [3] (Hepatitis C virus, Huh-7, 72 h) was 0.014 µM.
In the same order, the values of `Fc1ccc(CNc2ccncc2)c(F)c1Oc1ccccc1` [Example 110, (2,4-Difluoro-3-phenoxy-benzyl)-pyridin-4-yl-amine.hydrochloride] are 5.59 and 2.3 µM.

Broadly, the pIC50 is the IC50 on a negative log10 scale, so that one unit is a factor of ten. As a reminder, the EC50 is the concentration giving half of the maximal effect. A word on the pEC50: it is −log10 of the EC50, conventionally taken in molar units. A word on the inhibition: it is the relative decrease from the control value, in per cent.
